The record followed here is patent US7932241B2, “Pharmaceutical products comprising bisphosphonates” (Novartis AG, priority 2003, dated 2011).

The structures appear in SMILES notation.

This data set can be described thus: physchem. The conditions noted are these: pKa values.

Procedure: Each 800 g of this solution (equivalent to 50 mg of zoledronic acid) are titrated with • (a) a solution of 0.500 g/100 mL trisodium citrate dihydrate in water for injection • (b) a solution of 0.500 g/100 mL anhydrous sodium acetate in water for injection • (c) a solution of 0.500 g/100 mL disodium tartrate dihydrate in water for injection • (d) a solution of 0.500 g/100 mL trisodium phosphate hexahydrate in water for injection • (e) a solution of 0.400 g/100 mL sodium hydroxide in water for injection
The pH value after each addition of 200 μL of base solution is recorded potentiometrically.

For the compound `O=P(O)(O)C(O)(Cn1ccnc1)P(=O)(O)O` [zoledronic acid, 2-(imidazol-1yl)-1-hydroxyethane-1,1-diphosphonic acid], the pKa is 5.9.

By pKa is commonly meant the pH at which an ionisable group is half protonated. A lower pKa goes with a group that gives up its proton readily.
